For 1 compound, Kd and pKa results are on record in patent US20040087842A1, “Fluorescent probes for saccharrides” (priority 2002, published 2004).

For data set [1] the following is noted: DSTBA, from reference 3; read-out: KD fructose; cited from earlier work.
Data set [2] can be described thus: Fluorescence titration curves against sugar (dissociation constant), D-galactose. Particulars: stilbenes; pH 8.0; 33.3% methanol; read-out: KD D-galactose. It is filed as binding. The method, then: (§1) Stilbene-4-boronic acid (STBA), 4′-cyanostilbene-4-boronic acid (CSTBA), 4′-methoxystilbene-4-boronic acid (MSTBA) and 4′-(dimethylamino)stilbene-4-boronic acid (DSTBA) were synthesized by the Wittig reaction between the para-substituted benzaldehydes and the para-boronic acid derivative of the benzyltriphenylphosphonium bromide. This latter was synthesized by the reaction of the p-bromomethylphenylboronic acid with triphenylphosphine in toluene. […] Absorption spectrawere recorded with a Cary 50 UV-Vis spectrophotometer from Varian. Emission spectra were recorded with a Varian Eclipse spectrofluorometer from Varian. In both cases, the measurements were taken at room temperature in a 1 cm quartz cuvette. For all measurements, the absorbances of the solutions were about 0.1 corresponding to a concentration range of 2-3×10^−6 M of the fluorophore. Fluorescence quantum yields were measured against p-quaterphenyl in cyclohexane (ΦF=0.89) for trans-stilbene (ST) and STBA, anthracene in cyclohexane (φF=0.36) for CSTBA and MSTBA and Quinine sulfate in 1N sulfuric acid (ΦF=0.577) for DSTBA.
(§2) where Iacid and Ibase are the intensity limits in the acid and basic region, respectively. Titration curves against sugar were fitted and dissociation constant (KD) values were obtained using the equation: [formula]
(§3) where Io and If are the initial (no sugar) and final (plateau) intensities of the titration curves. All solutions in water and buffer contained also 33.3% […] methanol to avoid any problem due to the aggregation.

Data set [3] is described as follows: Titration curves against pH (pKa of the boronic acid group) with and without sugar. It is filed as physicochemical. The following applies: aqueous buffer solutions with methanol, stilbenes. The method, then:
Titration curves against pH were measured in buffer solutions: acetate buffer for pH 4.0-5.5, phosphate buffer for pH 6.0-9.0 and carbonate buffer for pH 10,0-11.0. Titration curves were fitted and pKa (pKa=−log Ka) values were obtained using the equation: [formula]
as §2
(§4) where Io and If are the initial (no sugar) and final (plateau) intensities of the titration curves. […]

For data set [4] the following is noted: DSTBA, from reference 3; read-out: KD glucose; cited from earlier work.
Data set [5] can be described thus: Fluorescence titration curves against sugar (dissociation constant), D-fructose. It is filed as binding. The following applies: stilbenes; pH 8.0; 33.3% methanol; read-out: KD D-fructose. How it is done: as §1, §2, §3
For data set [6] the following is noted: DSTBA, from reference 3; read-out: KD galactose; cited from earlier work.
A short description of data set [7]: Fluorescence titration curves against sugar (dissociation constant), D-glucose. It is filed as binding. The following applies: stilbenes; pH 8.0; 33.3% methanol; read-out: KD D-glucose. How it is done:
as §1, §2, §4

The Kd is the free concentration of one partner at which half of the binding sites on the other are occupied at equilibrium, for simple one-to-one binding. Broadly, the pKa is the negative logarithm of the acid dissociation constant.

Read-outs that look alike come from different tables or passages of the source.

In the case of `CN(C)c1ccc(/C=C/c2ccc(B(O)O)cc2)cc1` [DSTBA, 4′-(dimethylamino)stilbene-4-boronic acid], the Kd was 2.5 mM in data set [1]; 49 mM in data set [2]; 98 mM in data set [4]; 2.5 mM in data set [5]; 49 mM in data set [6]; 98 mM in data set [7]. Moreover, the pKa amounted to 6.61 in data set [3] (33.3% methanol, 50 mM D-fructose, read-out: pKa +D-fructose (50 mM)); 8.34 in data set [3] (33.3% methanol, 50 mM D-glucose, read-out: pKa +D-glucose (50 mM)); 9.14 in data set [3] (solution contained 33.3% methanol, no sugar, read-out: pKa Alone).
